Experimental data reported in patent US9814761B2, “Compositions, methods and assays comprising amylin or amlyin analogs for abeta-peptide mediated disorders” (TRUSTEES OF BOSTON UNIVERSITY, priority 2012, dated 2017).
Entries after “also recorded” stand apart in the source; their conditions may differ.

Legend:
[1] = molecular target: T1, IDE (insulin degrading enzyme) (Mus musculus, UniProt Q9JHR7); test: pre-treatment with IDE inhibitor followed by amylin challenge, serum Aβ; type: in vivo; settings: Tg2576 mice pre-treated with 1-10 phenonthrolin, then amylin challenge
T1 construct: endogenous in cells; host or cells: Tg2576 (APP transgenic) mice, whole animal, i.p. dosing
T1 sequence (Q9JHR7 1-1019): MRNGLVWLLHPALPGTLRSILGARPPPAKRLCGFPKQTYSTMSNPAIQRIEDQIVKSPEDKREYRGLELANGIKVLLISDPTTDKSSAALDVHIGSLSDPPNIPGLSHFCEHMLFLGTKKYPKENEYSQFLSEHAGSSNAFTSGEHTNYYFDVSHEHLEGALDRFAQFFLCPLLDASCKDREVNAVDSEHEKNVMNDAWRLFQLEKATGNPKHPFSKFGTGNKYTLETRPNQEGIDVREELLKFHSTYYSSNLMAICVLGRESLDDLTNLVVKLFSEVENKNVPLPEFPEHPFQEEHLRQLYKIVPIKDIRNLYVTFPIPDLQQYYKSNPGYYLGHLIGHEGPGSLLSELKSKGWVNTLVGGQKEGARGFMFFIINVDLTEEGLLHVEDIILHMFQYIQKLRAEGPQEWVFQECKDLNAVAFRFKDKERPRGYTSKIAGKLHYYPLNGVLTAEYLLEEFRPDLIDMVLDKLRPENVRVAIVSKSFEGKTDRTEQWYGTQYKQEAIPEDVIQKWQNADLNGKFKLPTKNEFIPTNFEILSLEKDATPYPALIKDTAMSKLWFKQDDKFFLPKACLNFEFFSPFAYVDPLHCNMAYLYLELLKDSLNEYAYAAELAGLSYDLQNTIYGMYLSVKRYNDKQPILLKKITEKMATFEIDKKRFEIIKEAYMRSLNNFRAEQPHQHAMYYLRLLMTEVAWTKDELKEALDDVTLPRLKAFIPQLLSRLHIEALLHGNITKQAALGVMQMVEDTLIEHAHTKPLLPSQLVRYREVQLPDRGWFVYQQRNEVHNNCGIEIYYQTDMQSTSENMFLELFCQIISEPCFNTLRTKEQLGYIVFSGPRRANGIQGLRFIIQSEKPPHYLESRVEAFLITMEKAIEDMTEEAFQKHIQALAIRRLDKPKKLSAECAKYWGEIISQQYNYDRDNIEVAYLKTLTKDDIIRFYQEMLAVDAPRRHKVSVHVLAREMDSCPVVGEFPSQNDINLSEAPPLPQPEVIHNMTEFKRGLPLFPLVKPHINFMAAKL
Method: Tg2576 mice were used for the amylin challenge test. The mice received blood draws before any treatment. Then the mice had intraperitoneally injection (i.p) of PBS, AC253 (amylin receptor antagonist) or 1,10-phenonthrolin (IDE inhibitor) and received another blood draw 24 hrs post the treatment followed by i.p amylin (20 mg/kg). The final blood draw was conducted after 24 hrs post i.p amylin. Serum Aβ1-40 (5A) and Aβ1-42 (5B) were measured by using the ELISA assays. The levels of serum Aβ1-40 and Aβ1-42 at pre-injection of amylin were treated as 1 s, and the relative fold increases with different treatments were calculated and compared with the pre-injection level by using two-way ANOVA. P values for statistical significance are shown.
As amylin and Aβ are degraded by the same protease, IDE, we next pre-treated the Tg2576 mice with 1-10 phenonthrolin, a metalloprotease inhibitor to inhibit the activity of IDE, followed by the amylin challenge. It was next tested whether CTR/RAMP3 and IDE form a complex in this process to regulate Aβ in the brain. […] Another experiment with IDE immunoprecipitation and then RAMP3 western blot also illustrated the complex.

[2] = test system: plasma Aβ1-40 and Aβ1-42; test: pramlintide challenge in two human subjects, plasma Aβ1-40 and Aβ1-42; type: in vivo; settings: pramlintide 60 mcg s.c.
Method: (§1) Subcutaneous injections of one dose of pramlintide (60 mcg) was performed in two subjects followed in the research registry of the BU ADC, one control and one probable Alzheimer's disease. Blood was drawn to collect plasma samples before the injection and at 5, 30, 60 and 180 minutes after the injection. Vital signs and blood glucose were monitored at these time points and prior to discharge of the subject from the facility. One hour after the injection, the subjects were offered a standard meal. Plasma Aβ1-40 and Aβ1-42 were measured (Table 2). […] The human results provided herein are encouraging, in part, because the dose of pramlintide (60 mcg) used was only moderate.

[3] = test system: mouse models; test: daily dosing in mouse models, memory functions; type: in vivo, mice
[4] = blood (stick) glucose monitored after pramlintide injection in two human subjects; type: in vivo; settings: pramlintide 60 mcg s.c.
Method: as §1

## c1cnc2c(c1)ccc1cccnc12 [1-10 phenonthrolin, 1,10-phenonthrolin]
[1]
  surges of serum Aβ at 24 hrs post the peripheral injection of amylin: completely blocked

## CC[C@H](C)[C@H](NC(=O)[C@@H]1CCCN1C(=O)CNC(=O)[C@H](Cc1ccccc1)NC(=O)[C@H](CC(N)=O)NC(=O)[C@H](CC(N)=O)NC(=O)[C@H](CO)NC(=O)[C@H](CO)NC(=O)[C@H](Cc1c[nH]cn1)NC(=O)[C@@H](NC(=O)[C@H](CC(C)C)NC(=O)[C@H](Cc1ccccc1)NC(=O)[C@H](CC(N)=O)NC(=O)[C@H](C)NC(=O)[C@H](CC(C)C)NC(=O)[C@H](CCCNC(=N)N)NC(=O)[C@H](CCC(N)=O)NC(=O)[C@@H](NC(=O)[C@H](C)NC(=O)[C@@H]1CSSC[C@H](NC(=O)[C@@H](N)CCCCN)C(=O)N[C@@H](CC(N)=O)C(=O)N[C@@H]([C@@H](C)O)C(=O)N[C@@H](C)C(=O)N[C@@H]([C@@H](C)O)C(=O)N1)[C@@H](C)O)C(C)C)C(=O)N[C@@H](CC(C)C)C(=O)N1CCC[C@H]1C(=O)N1CCC[C@H]1C(=O)N[C@H](C(=O)N[C@@H](CC(N)=O)C(=O)N[C@H](C(=O)NCC(=O)N[C@@H](CO)C(=O)N[C@@H](CC(N)=O)C(=O)N[C@H](C(=O)N[C@@H](Cc1ccc(O)cc1)C(N)=O)[C@@H](C)O)C(C)C)[C@@H](C)O [pramlintide]
[2]; AD subject, post 5', pre-injection 27.0
  plasma Aβ1-42: 29.0 pg/mL
[2]; AD subject, post 5', pre-injection 180.6
  plasma Aβ1-40: 160.8 pg/mL
[2]; AD subject, post 30', pre-injection 27.0
  plasma Aβ1-42: 31.8 pg/mL
[2]; AD subject, post 30', pre-injection 180.6
  plasma Aβ1-40: 161.0 pg/mL
[2]; AD subject, post 60', pre-injection 27.0
  plasma Aβ1-42: 26.6 pg/mL
[2]; AD subject, post 60', pre-injection 180.6
  plasma Aβ1-40: 129.4 pg/mL
[2]; AD subject, post 180', pre-injection 27.0
  plasma Aβ1-42: 22.0 pg/mL
[2]; AD subject, post 180', pre-injection 180.6
  plasma Aβ1-40: 104.6 pg/mL
[2]; control subject, post 5', pre-injection 29.9
  plasma Aβ1-42: 26.0 pg/mL
[2]; control subject, post 5', pre-injection 148.4
  plasma Aβ1-40: 178.4 pg/mL
[2]; control subject, post 30', pre-injection 29.9
  plasma Aβ1-42: 27.5 pg/mL
[2]; control subject, post 30', pre-injection 148.4
  plasma Aβ1-40: 150.4 pg/mL
[2]; control subject, post 60', pre-injection 29.9
  plasma Aβ1-42: 21.7 pg/mL
[2]; control subject, post 60', pre-injection 148.4
  plasma Aβ1-40: 110.5 pg/mL
[2]; control subject, post 180', pre-injection 29.9
  plasma Aβ1-42: 10.6 pg/mL
[2]; control subject, post 180', pre-injection 148.4
  plasma Aβ1-40: 100.8 pg/mL
[3]
  memory functions / cognition: increased memory functions; also recorded: led to cognitive improvements
[4]; AD subject, post 5', pre-injection 85
  Glucose: 91 mg/dL
[4]; AD subject, post 30', pre-injection 85
  Glucose: 88 mg/dL
[4]; AD subject, post 60', pre-injection 85, standard meal offered one hour after injection
  Glucose: 135 mg/dL
[4]; AD subject, post 180', pre-injection 85, standard meal offered one hour after injection
  Glucose: 115 mg/dL
[4]; control subject, post 5', pre-injection 115
  Glucose: 108 mg/dL
[4]; control subject, post 30', pre-injection 115
  Glucose: 115 mg/dL
[4]; control subject, post 60', pre-injection 115, standard meal offered one hour after injection
  Glucose: 114 mg/dL
[4]; control subject, post 180', pre-injection 115, standard meal offered one hour after injection
  Glucose: 149 mg/dL
